The series relates to rodent lifetime carcinogenesis bioassay, tumor incidence TD50. Put plainly: carcinogenic potency in animals, long-term in vivo studies, CPDB compilation (AID 1745844).

The source made the active and inactive calls. The rule behind the calls is not given here.

One may read the TD50 as the 50% point of the dose-response relation for the toxic effect studied.

Take `C=C1C/C(=C/C)C(=O)O[C@@H]2CCN3CC=C(COC(=O)[C@@]1(O)CO)[C@H]23`: the TD50 by setting is: (mouse, strain B6C3F1, females, by gavage, site: all sites, lesion: hemangioma + hemangiosarcoma, dosed 105 weeks, study length 105 weeks) 10 mg/kg/day; (mouse, strain B6C3F1, females, by gavage, site: any site (literature study), lesion: several types, types named in the paper, dosed 105 weeks, study length 105 weeks) 0.691 mg/kg/day; (mouse, strain B6C3F1, females, by gavage, site: lung, lesion: alveolar/bronchiolar adenoma + alveolar/bronchiolar carcinoma, dosed 105 weeks, study length 105 weeks) 1.99 mg/kg/day; (mouse, strain B6C3F1, females, by gavage, site: lung, lesion: alveolar/bronchiolar adenoma, dosed 105 weeks, study length 105 weeks) 2.68 mg/kg/day; (mouse, strain B6C3F1, males, by gavage, site: all sites, lesion: hemangiosarcoma, dosed 104 weeks, study length 104 weeks) 1.63 mg/kg/day; (mouse, strain B6C3F1, males, by gavage, site: any site (literature study), lesion: several types, types named in the paper, dosed 104 weeks, study length 104 weeks) 1.09 mg/kg/day. Further, the TD50 was 1.96 mg/kg/day (mouse, strain B6C3F1, males, by gavage, site: liver, lesion: hemangiosarcoma, dosed 104 weeks, study length 104 weeks); 5.57 mg/kg/day (mouse, strain B6C3F1, males, by gavage, site: lung, lesion: alveolar/bronchiolar adenoma + alveolar/bronchiolar carcinoma, dosed 104 weeks, study length 104 weeks); 0.143 mg/kg/day (rat, strain Fischer 344, females, by gavage, site: all sites + liver, lesion: mononuclear-cell leukemia + hemangiosarcoma + hepatocellular adenoma, dosed 102 weeks, study length 104 weeks); 0.234 mg/kg/day (rat, strain Fischer 344, females, by gavage, site: all sites + liver, lesion: mononuclear-cell leukemia + hepatocellular adenoma, dosed 102 weeks, study length 104 weeks); 0.446 mg/kg/day (rat, strain Fischer 344, females, by gavage, site: all sites, lesion: hemangiosarcoma, dosed 102 weeks, study length 104 weeks); 0.293 mg/kg/day (rat, strain Fischer 344, females, by gavage, site: all sites, lesion: mononuclear-cell leukemia, dosed 102 weeks, study length 104 weeks). The TD50 (rat, strain Fischer 344, females, by gavage, site: any site (literature study), lesion: several types, types named in the paper, dosed 102 weeks, study length 104 weeks) was found to be 0.0706 mg/kg/day; the TD50 (rat, strain Fischer 344, females, by gavage, site: liver, lesion: hemangiosarcoma, dosed 102 weeks, study length 104 weeks) was 0.457 mg/kg/day; the TD50 (rat, strain Fischer 344, females, by gavage, site: liver, lesion: hepatocellular adenoma + hepatoblastoma + hepatocellular carcinoma, dosed 102 weeks, study length 104 weeks) came to 1.2 mg/kg/day; the TD50 (rat, strain Fischer 344, females, by gavage, site: liver, lesion: hepatocellular adenoma + hepatocellular carcinoma, dosed 102 weeks, study length 104 weeks) was determined as 1.2 mg/kg/day; the TD50 (rat, strain Fischer 344, females, by gavage, site: liver, lesion: hepatocellular adenoma, dosed 102 weeks, study length 104 weeks) was 1.63 mg/kg/day; the TD50 (rat, strain Fischer 344, females, by gavage, site: thyroid gland, lesion: c-cell adenoma + c-cell adenoma, bilateral, dosed 102 weeks, study length 104 weeks) worked out at 0.62 mg/kg/day. Further, the TD50 reads like this: (rat, strain Fischer 344, males, by gavage, site: all sites + liver, lesion: mononuclear-cell leukemia + hemangiosarcoma + hepatocellular adenoma, dosed 71 weeks, study length 71 weeks) 0.0665 mg/kg/day; (rat, strain Fischer 344, males, by gavage, site: all sites + liver, lesion: mononuclear-cell leukemia + hepatocellular adenoma, dosed 71 weeks, study length 71 weeks) 0.179 mg/kg/day; (rat, strain Fischer 344, males, by gavage, site: all sites, lesion: mononuclear-cell leukemia, dosed 71 weeks, study length 71 weeks) 0.232 mg/kg/day; (rat, strain Fischer 344, males, by gavage, site: any site (literature study), lesion: several types, types named in the paper, dosed 71 weeks, study length 71 weeks) 0.0267 mg/kg/day; (rat, strain Fischer 344, males, by gavage, site: liver, lesion: hemangiosarcoma, dosed 71 weeks, study length 71 weeks) 0.0744 mg/kg/day; (rat, strain Fischer 344, males, by gavage, site: liver, lesion: hepatocellular adenoma + hepatoblastoma + hepatocellular carcinoma, dosed 71 weeks, study length 71 weeks) 0.584 mg/kg/day. The TD50 (rat, strain Fischer 344, males, by gavage, site: liver, lesion: hepatocellular adenoma, dosed 71 weeks, study length 71 weeks) was 0.584 mg/kg/day and the TD50 (rat, strain Fischer 344, males, by gavage, site: lung, lesion: alveolar/bronchiolar adenoma, dosed 71 weeks, study length 71 weeks) was found to be 0.528 mg/kg/day.
Consider `c1ccc(NNc2ccccc2)cc1`, for which the TD50 reads like this: (mouse, strain B6C3F1, females, in feed, site: any site (literature study), lesion: several types, types named in the paper, dosed 78 weeks, study length 95 weeks) 31.5 mg/kg/day; (mouse, strain B6C3F1, females, in feed, site: liver, lesion: hepatocellular adenoma + hepatocellular carcinoma + neoplastic nodule, dosed 78 weeks, study length 95 weeks) 26 mg/kg/day; (mouse, strain B6C3F1, females, in feed, site: liver, lesion: hepatocellular adenoma + hepatocellular carcinoma, dosed 78 weeks, study length 95 weeks) 26 mg/kg/day; (mouse, strain B6C3F1, females, in feed, site: liver, lesion: hepatocellular carcinoma, dosed 78 weeks, study length 95 weeks) 29.7 mg/kg/day; (mouse, strain B6C3F1, females, in feed, site: lung, lesion: alveolar/bronchiolar adenoma + alveolar/bronchiolar carcinoma, dosed 78 weeks, study length 95 weeks) 8760 mg/kg/day; (mouse, strain B6C3F1, males, in feed, site: liver, lesion: hepatocellular adenoma + hepatocellular carcinoma + neoplastic nodule, dosed 78 weeks, study length 95 weeks) 1090 mg/kg/day. The TD50 runs as follows: (rat, strain Fischer 344, females, in feed, site: any site (literature study), lesion: several types, types named in the paper, dosed 78 weeks, study length 106 weeks) 4.5 mg/kg/day; (rat, strain Fischer 344, females, in feed, site: liver + mammary gland, lesion: neoplastic nodule + adenocarcinoma, NOS, dosed 78 weeks, study length 106 weeks) 6.74 mg/kg/day; (rat, strain Fischer 344, females, in feed, site: liver, lesion: hepatocellular adenoma + hepatocellular carcinoma + neoplastic nodule, dosed 78 weeks, study length 106 weeks) 18.1 mg/kg/day; (rat, strain Fischer 344, females, in feed, site: liver, lesion: neoplastic nodule, dosed 78 weeks, study length 106 weeks) 18.1 mg/kg/day; (rat, strain Fischer 344, females, in feed, site: mammary gland, lesion: adenocarcinoma, NOS, dosed 78 weeks, study length 106 weeks) 11.4 mg/kg/day; (rat, strain Fischer 344, males, in feed, site: Zymbal's gland, lesion: squamous-cell carcinoma, dosed 78 weeks, study length 106 weeks) 38.5 mg/kg/day. For the same molecule, the TD50 is, setting by setting: (rat, strain Fischer 344, males, in feed, site: adrenal gland, lesion: pheochromocytoma, dosed 78 weeks, study length 106 weeks) 16.2 mg/kg/day; (rat, strain Fischer 344, males, in feed, site: any site (literature study), lesion: several types, types named in the paper, dosed 78 weeks, study length 106 weeks) 6.85 mg/kg/day; (rat, strain Fischer 344, males, in feed, site: ear canal + Zymbal's gland, lesion: squamous-cell carcinoma + squamous-cell papilloma, dosed 78 weeks, study length 106 weeks) 35.8 mg/kg/day; (rat, strain Fischer 344, males, in feed, site: liver + Zymbal's gland, lesion: hepatocellular carcinoma + neoplastic nodule + squamous-cell carcinoma, dosed 78 weeks, study length 106 weeks) 3.55 mg/kg/day; (rat, strain Fischer 344, males, in feed, site: liver, lesion: hepatocellular adenoma + hepatocellular carcinoma + neoplastic nodule, dosed 78 weeks, study length 106 weeks) 3.7 mg/kg/day; (rat, strain Fischer 344, males, in feed, site: liver, lesion: hepatocellular carcinoma + neoplastic nodule, dosed 78 weeks, study length 106 weeks) 3.7 mg/kg/day. Moreover, for the setting “rat, strain Fischer 344, males, in feed, site: liver, lesion: hepatocellular carcinoma, dosed 78 weeks, study length 106 weeks”, the TD50 was 4.67 mg/kg/day. Besides, the carcinogen call (mouse, strain B6C3F1, males, in feed, site: any site (literature study), lesion: several types, types named in the paper, dosed 78 weeks, study length 95 weeks) is “negative (inactive)”.
Regarding `ClC(Cl)C(Cl)(Cl)Cl`, the TD50 is 39.5 mg/kg/day (mouse, strain B6C3F1, females, by gavage, site: any site (literature study), lesion: several types, types named in the paper, dosed 103 weeks, study length 104 weeks); 39.8 mg/kg/day (mouse, strain B6C3F1, females, by gavage, site: liver, lesion: hepatocellular adenoma + hepatocellular carcinoma + neoplastic nodule, dosed 103 weeks, study length 104 weeks); 39.8 mg/kg/day (mouse, strain B6C3F1, females, by gavage, site: liver, lesion: hepatocellular adenoma + hepatocellular carcinoma, dosed 103 weeks, study length 104 weeks); 153 mg/kg/day (mouse, strain B6C3F1, females, by gavage, site: liver, lesion: hepatocellular adenoma, dosed 103 weeks, study length 104 weeks); 66.6 mg/kg/day (mouse, strain B6C3F1, females, by gavage, site: liver, lesion: hepatocellular carcinoma, dosed 103 weeks, study length 104 weeks); 1030 mg/kg/day (mouse, strain B6C3F1, females, by gavage, site: lung, lesion: alveolar/bronchiolar adenoma + alveolar/bronchiolar carcinoma, dosed 103 weeks, study length 104 weeks). Besides, the TD50 runs as follows: (mouse, strain B6C3F1, males, by gavage, site: any site (literature study), lesion: several types, types named in the paper, dosed 103 weeks, study length 104 weeks) 85.6 mg/kg/day; (mouse, strain B6C3F1, males, by gavage, site: liver, lesion: hepatocellular adenoma + hepatocellular carcinoma + neoplastic nodule, dosed 103 weeks, study length 104 weeks) 107 mg/kg/day; (mouse, strain B6C3F1, males, by gavage, site: liver, lesion: hepatocellular adenoma + hepatocellular carcinoma, dosed 103 weeks, study length 104 weeks) 107 mg/kg/day; (mouse, strain B6C3F1, males, by gavage, site: liver, lesion: hepatocellular carcinoma, dosed 103 weeks, study length 104 weeks) 102 mg/kg/day; (rat, strain Fischer 344, females, by gavage, site: any site (literature study), lesion: several types, types named in the paper, dosed 103 weeks, study length 104 weeks) 1660 mg/kg/day (inactive); (rat, strain Fischer 344, males, by gavage, site: kidney, lesion: tubular-cell adenoma + tubular-cell adenocarcinoma, dosed 103 weeks, study length 104 weeks) 662 mg/kg/day. In addition, the TD50 (rat, strain Fischer 344, males, by gavage, site: kidney, lesion: tubular-cell adenoma, dosed 103 weeks, study length 104 weeks) was 635 mg/kg/day.
For the molecule `Nc1ccccc1-c1ccccc1`, the TD50 (mouse, strain B6C3F1, females, in feed, site: all sites, lesion: angiosarcoma + hemangioma, dosed 103 weeks, study length 104 weeks) is 1120 mg/kg/day; the TD50 (mouse, strain B6C3F1, females, in feed, site: all sites, lesion: angiosarcoma, dosed 103 weeks, study length 104 weeks) was 1280 mg/kg/day; the TD50 (mouse, strain B6C3F1, females, in feed, site: any site (literature study), lesion: several types, types named in the paper, dosed 103 weeks, study length 104 weeks) was 1880 mg/kg/day; the TD50 (mouse, strain B6C3F1, females, in feed, site: liver, lesion: hepatocellular adenoma + hepatocellular carcinoma + neoplastic nodule, dosed 103 weeks, study length 104 weeks) worked out at 2000 mg/kg/day; the TD50 (mouse, strain B6C3F1, females, in feed, site: lung, lesion: alveolar/bronchiolar adenoma + alveolar/bronchiolar carcinoma, dosed 103 weeks, study length 104 weeks) turned out to be 26100 mg/kg/day; the TD50 (mouse, strain B6C3F1, males, in feed, site: all sites, lesion: angiosarcoma + hemangioma + hemangiosarcoma, dosed 103 weeks, study length 104 weeks) was 1250 mg/kg/day. The TD50 (mouse, strain B6C3F1, males, in feed, site: all sites, lesion: angiosarcoma + hemangiosarcoma, dosed 103 weeks, study length 104 weeks) was 1810 mg/kg/day; the TD50 (mouse, strain B6C3F1, males, in feed, site: any site (literature study), lesion: several types, types named in the paper, dosed 103 weeks, study length 104 weeks) is 720 mg/kg/day; the TD50 (mouse, strain B6C3F1, males, in feed, site: liver, lesion: hepatocellular adenoma + hepatocellular carcinoma + neoplastic nodule, dosed 103 weeks, study length 104 weeks) was 1700 mg/kg/day; the TD50 (rat, strain Fischer 344, females, in feed, site: liver, lesion: hepatocellular adenoma + hepatocellular carcinoma + neoplastic nodule, dosed 103 weeks, study length 105 weeks) is 363 mg/kg/day. The carcinogen call reads like this: (rat, strain Fischer 344, females, in feed, site: any site (literature study), lesion: several types, types named in the paper, dosed 103 weeks, study length 105 weeks) “negative (inactive)”; (rat, strain Fischer 344, males, in feed, site: any site (literature study), lesion: several types, types named in the paper, dosed 103 weeks, study length 104 weeks) “negative (inactive)”.
`C=CC(O)c1ccc(OC)cc1` (configuration not stated): the TD50 (mouse, strain Charles River CD1, females, in feed, site: liver, lesion: hepatoma, dosed 51 weeks, study length 86 weeks) is 57.8 mg/kg/day.

(Values after PubChem BioAssay AID1745844 (Carcinogenic Potency Database (CPDB), 2022).)
